Key:
[1] = Selectivity index, ratio of CC50 for human MRC5 cells to IC50 for amastigote form of Leishmania infantum MHOM/MA(BE)/67; type: functional
[2] = Cytotoxicity against human MRC5 cells assessed as cell viability after 7 days by Alamar blue assay; type: cell-based
[3] = Selectivity index, ratio of CC50 for human MRC5 cells to IC50 for trypomastigote form of Trypanosoma brucei brucei 427; type: functional
[4] = tested on: Trypanosoma brucei rhodesiense; assay: Antiprotozoal activity against trypomastigote form of Trypanosoma brucei rhodesiense STIB900 assessed as parasite growth inhibition after 72 hrs by Alamar blue assay; type: functional, organism-based; details: STIB900, 72 h
[5] = Selectivity index, ratio of CC50 for human MRC5 cells to IC50 for trypomastigote form of Trypanosoma brucei rhodesiense STIB900; type: functional
[6] = tested on: Trypanosoma cruzi; assay: Antiprotozoal activity against epimastigote form of Trypanosoma cruzi Tulahuen 2 assessed as parasite growth inhibition measured at day 5; type: functional, organism-based; details: Tulahuen 2, 120 h
[7] = Selectivity index, ratio of CC50 for human MRC5 cells to IC50 for epimastigote form of Trypanosoma cruzi Tulahuen 2; type: functional
[8] = tested on: Leishmania infantum; assay: Antiprotozoal activity against amastigote form of Leishmania infantum MHOM/MA(BE)/67 infected in mouse peritoneal macrophages assessed as reduction of intracellular parasite burden after 5 days by Giemsa staining method; type: functional, organism-based; details: MHOM/MA(BE)/67, 120 h
[9] = tested on: Trypanosoma brucei brucei; assay: Antiprotozoal activity against trypomastigote form of Trypanosoma brucei brucei 427 assessed as parasite growth inhibition; type: functional, organism-based
[10] = Lipophilicity, log P of the compound; type: physicochemical; details: octanol/water

SMILES	Ratio CC50/IC50 [1]	CC50 at 168 h [2]	Ratio CC50/IC50 [3]	IC50 [4]	Ratio CC50/IC50 [5]	IC50 [6]	Ratio CC50/IC50 [7]	IC50 [8]	IC50 [9]	logP [10]
CC(C)(C)OC(=O)N1CCCC1C(=O)O/N=C1\c2ccccc2-c2c1c(-n1ccnc1)nc1ccc(Br)cc21 (stereo not given)	0.63	8 µM	1.09	4.33 µM	1.85	7.38 µM	1.08	12.7 µM	7.31 µM	
COc1nc2ccc(Br)cc2cc1C(c1ccccc1)n1ccnc1 (stereo not given)	1.21	30.8 µM	0.943	8.43 µM	3.65	0.46 µM	67.02	25.4 µM	32.7 µM	4.52
COc1nc2ccc(Br)cc2c2c1C(C)(OC(=O)N(C)C)c1ccccc1-2 (stereo not given)	1	64 µM	7.77	5.28 µM	12.12	7.42 µM	8.62	64 µM	8.23 µM	4.91
COc1ccccc1NC(=O)NCC(O)COC1(C)c2ccccc2-c2c1c(OC)nc1ccc(Br)cc21 (stereo not given)	0.56	5.31 µM	0.64	1.88 µM	2.82	2.5 µM	2.12	9.51 µM	8.23 µM	4.84
CC(C)(C)OC(=O)N1CCCC(C(=O)O/N=C2\c3ccccc3-c3c2c(C(F)(F)F)nc2ccc(Br)cc32)C1 (stereo not given)	0.72	5.84 µM	0.77	3.06 µM	1.91	12.3 µM	0.47	8.11 µM	7.56 µM	
O/N=C1\c2ccccc2-c2c1c(N1CCN(c3ccccn3)CC1)nc1ccc(Br)cc21	6.73	64 µM	7.34	2.61 µM	24.52	7.01 µM	9.13	9.51 µM	8.17 µM	6.4
O=C1c2ccccc2-c2c1c(N1CCN(c3ccccn3)CC1)nc1ccc(Br)cc21	0.21	4.33 µM	0.56	5.98 µM	0.72	6.87 µM	0.63	20.3 µM	7.69 µM	6.01
O=[N+]([O-])c1ccc2nc(Oc3ccc(F)cc3C(O)CN3CCCCC3)c(Cc3ccccc3)cc2c1 (stereo not given)	1.29		4.31	1.22 µM	8.8	2 µM	2.2	2.16 µM	2.01 µM	
CC1(O)c2ccccc2-c2c1c(OCC(F)(F)F)nc1ccc(Br)cc21 (stereo not given)	2.48	19.8 µM	2.41	3.23 µM	6.14	6.92 µM	2.86	8 µM	8.23 µM	5.71
CC(c1cc(F)ccc1Oc1nc2ccc(-n3cc(-c4ccccc4)nn3)cc2cc1Cc1ccccc1)n1ccnc1 (stereo not given)	3.15	64 µM	30.18	2.03 µM		1.93 µM		20.3 µM	2.04 µM	7.91
COc1ccc(-c2ccn(CC(O)c3cc(F)ccc3Oc3nc4ccc([N+](=O)[O-])cc4cc3Cc3ccccc3)n2)cc1 (stereo not given)	3.15		31.37	0.71 µM	31.52	64 µM	33.16	20.3 µM	2.12 µM	
CCCC(=O)O/N=C1\c2ccccc2-c2c1c(-n1ccnc1)nc1ccc(Br)cc21	1.37	8.23 µM	1	5.14 µM	1.6	2.38 µM	3.45	6.01 µM	8.17 µM	
COc1nc2ccc(Br)cc2c2c1C(C)(OCC(O)CN1CCN(C(c3ccccc3)c3ccccc3)CC1)c1ccccc1-2 (mixture of isomers)	2.16	17.6 µM	8.6	1.64 µM	10.7	5.85 µM	3	8.11 µM	2.04 µM	7.56
OC(c1ccccc1)c1c(C(F)(F)F)nc2ccc(Br)cc2c1Br (stereo not given)	0.19	1.51 µM	0.2	5.94 µM	0.25	8.07 µM	0.19	8.11 µM	7.52 µM	6.26
COc1nc2ccc(Br)cc2cc1C(c1ccccc1)n1cnc([N+](=O)[O-])c1 (stereo not given)	1.25	64 µM	29.62	0.44 µM	145.45	6.96 µM	9.19	50.8 µM	2.16 µM	
CCCCC(=O)OC1(C)c2ccccc2-c2c1c(-n1ccnc1)nc1ccc(Br)cc21 (stereo not given)	3.84	21.8 µM	2.68	5.81 µM	3.74	1.46 µM	14.91	5.66 µM	8.11 µM	5.58
CC(=O)OC1(C)c2ccccc2-c2c1c(-n1ccnc1)nc1ccc(Br)cc21 (stereo not given)	1.52	32.2 µM	1.11	7.11 µM	4.53	0.93 µM	34.65	21.1 µM	29 µM	4.09
COc1cccc(-c2ccn(CC(O)c3cc(F)ccc3Oc3nc4ccc([N+](=O)[O-])cc4cc3Cc3ccccc3)n2)c1 (stereo not given)		64 µM		2.08 µM	30.8	6.01 µM		8 µM	2.4 µM	
COc1ccccc1NC(=S)Nc1ccc2nc(Oc3ccc(F)cc3C(C)O)c(Cc3ccccc3)cc2c1 (stereo not given)	5.22	16 µM		0.53 µM	32.31	4.33 µM		5.28 µM	1.79 µM	7.86
CSCCC(NC(=O)OC(C)(C)C)C(=O)O/N=C1\c2ccccc2-c2c1c(N1CCN(c3ccccn3)CC1)nc1ccc(Br)cc21 (stereo not given)	6.73	64 µM	26.66	1.44 µM	44.44	7.39 µM	8.66	9.51 µM	2.4 µM	
COc1cccc(NC(=S)Nc2ccc3nc(Oc4ccc(F)cc4C(C)O)c(Cc4ccccc4)cc3c2)c1 (stereo not given)	8	64 µM	26.66	0.53 µM		14.7 µM		6.82 µM	2 µM	7.86
CC(C)(C)OC(=O)NC(C(=O)O/N=C1\c2ccccc2-c2c1c(N1CCN(c3ccccn3)CC1)nc1ccc(Br)cc21)C(C)(C)C (stereo not given)	6.29	35.6 µM	16.48	1.36 µM	26.17	7.87 µM	4.52	5.66 µM	2.16 µM	
COc1cccc(N2CCN(CC(O)COC3(C)c4ccccc4-c4c3c(N3CCN(C(c5ccccc5)c5ccccc5)CC3)nc3ccc(Br)cc43)CC2)c1 (stereo not given)	2.04	61.4 µM	30.26	0.86 µM	71.44	64 µM	0.96	30.1 µM	2.03 µM	
COc1cccc(NC(=O)Nc2ccc3nc(Oc4ccc(F)cc4C(C)O)c(Cc4ccccc4)cc3c2)c1 (stereo not given)		64 µM		2.07 µM	30.18	6.23 µM		8.11 µM	2.04 µM	6.72
CC(O)c1cc(F)ccc1Oc1nc2ccc(NS(=O)(=O)c3cccc(C(F)(F)F)c3)cc2cc1Cc1ccccc1 (stereo not given)		8 µM		1.46 µM		3.7 µM		8.11 µM	2.18 µM	7.69
CC(NC(=O)OC(C)(C)C)C(=O)O/N=C1\c2ccccc2-c2c1c(N1CCN(c3ccccn3)CC1)nc1ccc(Br)cc21 (stereo not given)	3.86	26.9 µM	13.19	1.65 µM	16.3	6.21 µM	4.33	6.96 µM	2.04 µM	
CC(C)(C)OC(=O)NCC(=O)O/N=C1\c2ccccc2-c2c1c(N1CCN(c3ccccn3)CC1)nc1ccc(Br)cc21	12.6	64 µM	10.58	1.2 µM	53.33	6.82 µM	9.38	5.08 µM	6.05 µM	

— ChEMBL document CHEMBL2375345, “New antiprotozoal agents: their synthesis and biological evaluations” (Bioorg Med Chem Lett, 2013)
